Reference: patent publication US10111935B2, “Agent for capturing tumor cells and methods of use thereof” (priority 2014, dated 2018)
Where two headings read alike, the source gives them in different places.

Test system: SKOV3 cells
Test: IC50 concentration of standard ovarian cancer chemotherapy
Format: cell-based

N.N.O=C([O-])C1(C(=O)[O-])CCC1.[Pt+2] [Carboplatin]
IC50 (Carboplatin individually, read-out: IC50): 10 µM
IC50 (Carboplatin part of the combination, read-out: IC50 in combination Paclitaxel+Carboplatin): 1 µM
